Results: patent US11464767B2, “Prodrugs of phenolic TRPV1 agonists in combination with local anesthetics and vasoconstrictors for improved local anesthesia” (Concentric Analgesics, Inc., priority 2016, dated 2022)

Experiments:
[1] = system: Brennan Model of Post-Incisional Pain in rat; experiment: Brennan Model of Post-Incisional Pain in rat, guarding scores (Example 4); type: in vivo, male Sprague Dawley rats
Procedure: This Example compares the pharmacodynamics of capsaicin from either capsaicin or from Compound 1 (with or without co-administered bupivacaine or ropivacaine) administered via intraplantar infiltration to rats.
Intraplantar infiltration dosing: Five groups of eight male Sprague Dawley rats (vendor was Charles River Laboratories) each were to receive a single subcutaneous dose of one of the following test articles: • Group 1. Compound 1, 162 μg in 0.25% bupivacaine solution (175 μL) • Group 2. Compound 1, 162 μg in 0.25% ropivacaine solution (175 μL) • Group 3. Compound 1, 162 μg in 0.125% ropivacaine solution (175 μL) • Group 4. 0.25% Ropivacaine solution (175 μL) • Group 5. Vehicle control (0.9% Saline; 175 μL)
The injection volume was 175 μL per rat. Vehicle and test articles will be administered by wound intraplantar infiltration (150 μL) immediately prior to incision, and injection into flexor muscle prior to closure (25 μL).
Surgery: Animals were anesthetized with 1.8 to 4% isofluorane (delivered via a nose cone). Study drug ([…]) was infiltrated (by intraplantar injection) immediately prior to incision. A 1 cm long incision of skin, fascia and muscle will be made in the plantar aspect (heel, midfoot or distal pad area) of the right hind paw starting 0.5 cm from the proximal edge of the heel and extending towards the toes. The flexor muscle was elevated and incised longitudinally via blunt dissection with the muscle origin and insertion remaining intact. After hemostasis with gentle pressure, study drug (25 μL) was injected into the flexor muscle prior to closure, and the incision was closed with one or two sutures (5-0 silk/nylon ophthalmic suture on a taper TF needle or equivalent). […]
Guarding Behaviors: The rats were placed in Plexiglas® squares on a stainless steel wire mesh floor thirty minutes before guarding scores are to be measured for acclimation. Guarding scores were measured over 1 hour time periods for the incised paw. The animals were observed closely during a 60 second period every 5 minutes for 1 hour and scored as follows. […]

in vivo = experiment: in vivo; design: species or system male Sprague-Dawley rats; settings: rat, sc; for Tmax: Tmax of capsaicin
Source text: This Example compares the pharmacokinetics of capsaicin from either capsaicin or from Compound 1 (with or without co-administered bupivacaine or bupivacaine with epinephrine) administered subcutaneously (SC) to rats. Additionally, this example compares the pharmacokinetics of cyclic urea metabolite (Compound 2) from Compound 1 (with or without co-administered bupivacaine or bupivacaine with epinephrine).
SC dosing: Four groups of six male Sprague-Dawley rats (vendor was Charles River Laboratories) each were to receive a single subcutaneous dose (4 mL/kg) of one of the following test articles:
Group 1) 1.00 mg/kg capsaicin in 25% PEG300/sterile water for injection (♦);
Group 2) 1.62 mg/kg Compound 1.HCl in sterile water for injection (□);
Group 3) 1.62 mg/kg Compound 1.HCl in 0.25% bupivacaine hydrochloride for injection (Δ);
Group 4) 1.62 mg/kg Compound 1.HCl in 0.25% bupivacaine hydrochloride plus epinephrine, (1:200,000 for injection) (*).
The dose of capsaicin and Compound 1 were selected to provide approximately equimolar amounts.
The injection volume was 4 mL/kg. (Note: The actual dose of capsaicin for Group 1 was 0.74 mg/kg, or 74% of the intended dose of 1 mg/kg. Dose data represents dose correction of Group 1 to equimolar dosages with Compound 1 from groups 2, 3, 4). The actual doses of Compound 1 HCl and bupivacaine for Groups 2, 3, and 4 were within 10% of the intended doses.
Blood samples (0.3 mL) were collected from the jugular vein into tubes containing K2EDTA as anticoagulant and 0.3 ml of 2% formic acid (resulting in a final concentration of 1% formic acid) as a quenching agent to stop the cyclization of Compound 1, which releases capsaicin and cyclic urea Compound 2. The samples were collected from each rat at 2, 10, and 30 minutes, and 1, 2, 4, 8, and 24 hours post-dose.
Each blood sample was mixed by inversion and placed on dry ice. They were not processed for plasma. The blood samples were kept frozen at −70° C. until further processing and analysis was performed. All blood samples were collected as scheduled.
The concentrations of the two main analytes in rat blood mixed 1:1 (v/v) with 2% formic acid were determined simultaneously using a qualified LC-MS/MS assay. The results for both analytes were reported in ng/mL. The calibration range was 1 to 1,000 ng/mL for Compound 1 and capsaicin in the mixed matrix. The calibration range was 5 to 1,000 ng/mL for Compound 2.
Table 1, FIG. 1, and FIG. 2 provide dose-corrected capsaicin exposure results for rats administered as described above.
Table 2, FIG. 3, and FIG. 4 provide Compound 2 exposure results for rats administered as described above.

[2] = Hydrophilicity/water solubility compared with capsaicin; type: physicochemical; settings: than capsaicin
[3] = male, Sprague-Dawley, 1.62 mg/kg

With `CCCN1CCCC[C@H]1C(=O)Nc1c(C)cccc1C` [0.25% Ropivacaine, Ropivacaine] as the molecule, how does the “Guarding Score (Mean ± SEM) Day 1” value ([1]; Day 1, beginning four hours post surgery, 175 μL intraplantar infiltration, Compound 1 dose 162 μg where present, incised paw, total scores 0-24) read?
Its value is 13.5 ± 1.17.

What about the “mean guarding scores on Day 1 compared to the 0.9% saline group” value ([1]; Day 1, 175 μL intraplantar infiltration, Compound 1 dose 162 μg where present, p<0.05) of the same molecule?
Its value is “no significant changes”.

What about the “Guarding Score (Mean ± SEM) Predose” value ([1]; Predose baseline, day prior to surgery and dosing, incised paw, total scores 0-24) of the same molecule?
The value was 1.1 ± 0.30.

Which Tmax (in vivo; male, Sprague-Dawley, 1 mg/kg, Mean ± SD) does the source give for `COc1cc(CNC(=O)CCCCC=CC(C)C)ccc1O` [Capsaicin, 8-methyl-N-vanillyl-6-nonenamide] here?
Its Tmax is 30 min.

What about the Tmax (in vivo; male, Sprague-Dawley, 1 mg/kg, Median) of the same molecule?
Its Tmax is 30 min.

And the “Tmax of capsaicin, Mean ± SD” value (in vivo; [3])?
The value was 50.0 ± 15.5 min.

And the “Tmax of capsaicin, Median” value (in vivo; [3])?
The value was 60 min.

And the Tmax (in vivo; male, Sprague-Dawley, 1.62 mg/kg, Mean ± SD)?
Its Tmax is 26.7 min.

And the Tmax (in vivo; male, Sprague-Dawley, 1.62 mg/kg, Median)?
Its Tmax is 30 min.

And the “AUC0-24 of capsaicin, Mean ± SD” value (in vivo; 1 mg/kg)?
Its value is 5,799 ± 1,759 (ng · min/mL)/(mg/kg).

And the “AUC0-24 of capsaicin, Median” value (in vivo; 1 mg/kg)?
Its value is 5,193 (ng · min/mL)/(mg/kg).

And the “Cmax of capsaicin, Mean ± SD” value (in vivo; 1 mg/kg)?
The value was 110 ± 41 (ng/mL)/(mg/kg).

What about the “Cmax of capsaicin, Median” value (in vivo; 1 mg/kg) of the same molecule?
Its value is 105 (ng/mL)/(mg/kg).

With `CNCC1CCCCN1C(=O)Oc1ccc(CNC(=O)CCCC/C=C/C(C)C)cc1OC.Cl` (centres unmarked) [Compound 1, (E)-2-methoxy-4-((8-methylnon-6-enamido)methyl)phenyl 2-((methylamino)methyl)piperidine-1-carboxylate hydrochloride] as the molecule, how does the hydrophilicity/water solubility [2] read?
The hydrophilicity/water solubility was “significantly higher”.

Which “AUC0-24 of Compound 2, Mean ± SD” value (in vivo; [3]) does the source give for `CN1CC2CCCCN2C1=O` (centres unmarked) [Compound 2, 2-methylhexahydroimidazo[1,5-a]pyridin-3(2H)-one] here?
The value was 24,180 ± 7,095 ng · min/mL.

And the “AUC0-24 of Compound 2, Median” value (in vivo; [3])?
The value was 25,930 ng · min/mL.

What about the “Cmax of Compound 2, Mean ± SD” value (in vivo; [3]) of the same molecule?
Its value is 175 ± 48 ng/mL.

What about the “Cmax of Compound 2, Median” value (in vivo; [3]) of the same molecule?
Its value is 196 ng/mL.

What about the “Tmax of Compound 2, Mean ± SD” value (in vivo; [3]) of the same molecule?
The value was 36.7 ± 19.7 min.

What about the AUC(0-t) (in vivo; male, Sprague-Dawley, 1.62 mg/kg, AUC0-24 of Compound 2, Mean ± SD) of the same molecule?
Its AUC(0-t) is 445 ng·h/mL.

What about the AUC(0-t) (in vivo; male, Sprague-Dawley, 1.62 mg/kg, AUC0-24 of Compound 2, Median) of the same molecule?
Its AUC(0-t) is 450 ng·h/mL.

And the Cmax (in vivo; male, Sprague-Dawley, 1.62 mg/kg, Cmax of Compound 2, Mean ± SD)?
The Cmax was 226 ± 37 ng/mL.

And the Cmax (in vivo; male, Sprague-Dawley, 1.62 mg/kg, Cmax of Compound 2, Median)?
The Cmax was 226 ng/mL.
